Molecules are shown by their SMILES.

In series [1] the test system is Botrytis cinerea. Briefly: Evaluation of control effect (preventive value) on cabbage leaf discs. In kind it is in vivo. The settings on record: 100 ppm test solution sprayed on cabbage leaf discs; Botrytis cinerea spore inoculation; three days after the infection. As for the experimental part: The compounds obtained in Examples 1 to 3 were dissolved in acetone to bring the concentration of the compounds to 1 mg/mL. Ten-fold diluted Neoesterin (manufactured by KUMIAI CHEMICAL INDUSTRY CO., LTD.) (1 μL) was added to 20 μL of the solutions. Further, 180 μL of deionized water was added thereto to regulate the concentration to 100 ppm to prepare test solutions. The control effect was measured by measuring the preventive value of each of the test solutions. The preventive value was calculated by the following method. At the outset, leaves cut by a leaf punch off from the leaves at the third and fourth stages of cabbage were allowed to stand still on a multi-well plate. An appropriate amount of the test solution was sprayed followed by air drying. Next, a spore suspension (2.0×10^5 cells/mL) of Botrytis cinerea was prepared as an inoculating microorganism liquor and was inoculated by spraying in an amount of 20 mL per 7 to 10 multi-well plate. Infection with Botrytis cinerea was carried out in a light shielding chamber (temperature 21° C., humidity about 100%), and the preventive value was calculated three days after the infection. […] 0; No pathogenesis was found. 1; Slight pathogenesis was found. 2; Control effect was found as compared with untreated plot, although diseases were developed. 3; Phathogenesis equivalent to that in untreated plot was found. [formula]

Series [2] in a line: Evaluation of photostability (residual ratio after exposure to light). The settings on record: dry film exposed to sunlight lamp 24 hr, 25° C., humidity 60%, 30,000 lux, UV 300 to 400 μW/cm^2; HPLC; 0 hr = 100%. It counts as physicochemical. As for the experimental part: The compounds obtained in Examples 1 to 3 were dissolved in acetone, and the concentration of the compounds was adjusted to 200 μg/mL (100 μg/mL for the compound of Example 3) to give test solutions. The photostability was determined by measuring the residual ratio of compound after exposure to light. The residual ratio was calculated by the following method. The test solution (500 μL) was dispensed in a glass Petri dish having a diameter of 5 cm, and the solvent was removed by evaporation under light shielding conditions to form a dry film. The dry film was exposed to a sunlight lamp within a chamber (temperature 25° C., humidity 60%) and was recovered 24 hr after the start of the exposure. The exposed film was washed with 500 μL of methanol and was analyzed by HPLC (manufactured by Nihon Waters K.K.). The residual ratio (concentration ratio after the elapse of each hour when the residual ratio at 0 hr was presumed to be 100%) was calculated by regarding the peak area as the concentration of the compound.

Series [3] has as its system Botrytis cinerea. Kind of series: Antimicrobial activity test (extension of hypha). In kind it is cell-based. Also noted: key to the marks not given beside the values. To be noted: final concentration 12.5 ppm, 3 days.
The test system of a further series is Alternaria kikutiana. Briefly: Antimicrobial activity test (extension of hypha). Also noted: key to the marks not given beside the values. In kind it is cell-based. To be noted: final concentration 12.5 ppm, 3 days.
The subject of the next series is Cercospora beticola. Kind of series: Antimicrobial activity test (extension of hypha). Also noted: key to the marks not given beside the values. The settings on record: final concentration 12.5 ppm, 3 days. It counts as cell-based.
The subject of series [4] is Colletotrichum lagenarium. Briefly: Antimicrobial activity test (extension of hypha). It counts as cell-based. Also noted: key to the marks not given beside the values. To be noted: final concentration 12.5 ppm, 3 days.
For another series, the system named is Pyricularia oryzae. In kind it is cell-based. Also noted: key to the marks not given beside the values. To be noted: final concentration 12.5 ppm, 3 days.
A further series relates to Rhizoctonia solani. Briefly: Antimicrobial activity test (extension of hypha). It counts as cell-based. The settings on record: final concentration 12.5 ppm, 3 days. Also noted: key to the marks not given beside the values.
For the next series, the system named is Leptosphaeria nodorum. Briefly: Antimicrobial activity test (extension of hypha). More on the design: key to the marks not given beside the values. The settings on record: final concentration 12.5 ppm, 3 days. It counts as cell-based.

As to `C/C=C(\C)[C@H]1[C@@H](/C=C/C=C/C(=O)O)[C@H]2[C@@H]([C@H]3C[C@]31C)[C@@H](O)CC[C@@H]2C` [Compound of Example 1, (2E,4E)-5-{(1aR,2R,3S,3aS,4S,7S,7aS,7bR)-2-[(E)-but-2-en-2-yl]-decahydro-7-hydroxy-1a,4-dimethyl-1H-cyclopropa[a]naphthalen-3-yl}penta-2,4-dienoic acid], in the series with Botrytis cinerea [1], the Preventive value was determined as 92. Moreover, the “Residual ratio after 24 hr” value in series [2] is on record as 100%.

The compound `C/C=C(\C)[C@H]1[C@@H](/C=C/C=C/C(=O)O)[C@H]2[C@@H](C[C@@H]1C)[C@@H](O)CC[C@@H]2C` [Compound of Example 2, (2E,4E)-5-{(1S,4S,4aS,5S,6R,7S,8aR)-6-[(E)-but-2-en-2-yl]-decahydro-1-hydroxy-4,7-dimethylnaphthalen-5-yl}penta-2,4-dienoic acid] had a Preventive value in the series with Botrytis cinerea [1] of 100. The “Residual ratio after 24 hr” value in series [2] amounted to 108%.

Compound `C/C=C(/C)[C@H]1[C@@H](/C=C/C=C/C(=O)O)[C@H]2[C@@H](C[C@@H]1C)[C@@H](O)CC[C@@H]2C` [Compound of Example 3, (2E,4E)-5-{(1S,4S,4aS,5S,6R,7S,8aR)-6-[(Z)-but-2-en-2-yl]-decahydro-1-hydroxy-4,7-dimethylnaphthalen-5-yl}penta-2,4-dienoic acid] gave a Preventive value with Botrytis cinerea [1] of 100. In addition, in series [2], the “Residual ratio after 24 hr” value is 95%. The Inhibition of extension entry in the series on Botrytis cinerea [3] is listed as “+++”; in the series with Alternaria kikutiana, “++”; with Cercospora beticola it was “+++”; in [4], “++”; in the series with Pyricularia oryzae, “++”; with Rhizoctonia solani it was “+++”. In the series on Leptosphaeria nodorum, the Inhibition of extension entry is “++”.

The values are drawn from patent US8324427B2, “Substances analogous to MK8383 and agricultural and horticultural disease control agents” (Meiji Seika Kaisha, Ltd., priority 2008, dated 2012).
